Measurements: patent publication US11998615B2, “Functionalized nanoparticles and their use in treating bacterial infections” (The Board of Trustees of the Leland Stanford Junior …, priority 2021, dated 2024)
Entries after “also recorded” stand apart in the source; their conditions may differ.

Experiments:
[1] = system: intra-macrophage PA (XDR); assay: 24 h intracellular infection model: intra-macrophage PA (XDR) in RAW 264.7 cells; assay type: cell-based, Pseudomonas aeruginosa; conditions: MOI 10, 3 μg/mL ciprofloxacin equivalent
From the text: FIGS. 5A-5C. […] Data shown reflect mean±SD of three replicates.
However, a critical gap exists in our general understanding of how macrophages respond physiologically to the thiol antioxidant inhibition strategy. Here, we will examine how the thiol antioxidant inhibition strategy (i.e., increased ROS levels) contributes to macrophages killing and intracellular persister cell death.

[2] = system: extensively drug-resistant (XDR) PA; assay: Growth inhibition (MIC) of extensively drug-resistant PA; assay type: cell-based, Pseudomonas aeruginosa; conditions: for AuNC, concentration of ciprofloxacin within the AuNC
From the text: FIGS. 2A-2F. […] PA01 is sensitized (FIGS. 2A-2B). […]. […] Data shown reflect mean±SD of three replicates.
H2O2 contributes causatively to antibiotics lethality (48). H2O2 is generated as a downstream physiological consequence of antibiotics interacting with their traditional targets. […] Thus, the main challenge to reach lethal H2O2 levels in resistant bacteria is to design molecules that inhibit the antioxidant defense mechanisms. […].

[3] = system: ciprofloxacin-induced persister cells from PA (XDR); assay: Eradication of ciprofloxacin-induced persister cells from PA (XDR); assay type: cell-based, Pseudomonas aeruginosa; conditions: 3 μg/mL ciprofloxacin equivalent, 24 h in PBS; persisters generated with 600 μg/mL ciprofloxacin
Procedure: FIGS. 3A-3E. […] Data shown reflect mean±SD of three replicates.
After removing the drugs, the surviving bacteria were enumerated. […] The steady-state level of H2O2 inside the unstressed aerobic bacterial cell has been projected to be about 50 nM (47). […] The H2O2 level was quantified by measuring the area under the curve (AUC) (FIGS. 3B, 3C).

[4] = system: TNF-α; assay: TNF-α secretion by RAW 264.7 cells; assay type: cell-based, murine; conditions: 2 μg/mL of ciprofloxacin

## O=C(O)c1cn(C2CC2)c2cc(N3CCNCC3)c(F)cc2c1=O [ciprofloxacin]
[1]
  residual intra-macrophage bacteria (CFU), in words: fails; also recorded: no significant difference
[2]
  ciprofloxacin concentration that inhibits growth of PA (XDR): > 127.6 µg/mL
[3]
  eradication of persister cells (in words): fails; also recorded: survival persisters
[4]
  average TNF levels: 53.75 ± 2 pg/mL
